This passage reports melting point results from a melting point compilation (Tetko et al.; mined from patent text by program, amines drawn as free bases though some values may be those of a salt).

The term melting point denotes the temperature, or range, at which the solid turns liquid. `CC(C)Nc1cccnc1N1CCN(C(=O)c2ccc(C(=O)Nc3nncs3)cn2)CC1` gave a melting point of 260 to 262 °C.

Turning to `N#Cc1ccc(N2CCN(Cc3cnc4c(c3)NC(=O)[C@@H]3CCCN43)CC2)cc1`, the melting point was 252 °C.

For `COc1ccccc1NC(=O)Nc1ccc2c(c1)CCN(C(=O)Nc1ccc(OCCO)cc1Cl)C2`, the melting point was in the range of 130 to 135 °C.

For the compound `O=[N+]([O-])c1ccc(CN2CCCCc3sccc32)cc1`, the melting point was 141 to 142 °C.

Regarding `CCOC(=O)c1cc(C)c2nc(CC)[nH]c2n1`, the melting point lay in the range of 151 to 153 °C.

In the case of `Cc1cccc(N2CCN(c3ccc(S(C)(=O)=O)nn3)CC2)c1`, the melting point is 201 °C.

Compound `O=C1c2ccccc2C(=O)N1CCCC(O)CF` (stereo not drawn) had a melting point of 85 °C.

As for `O=C(O)CCCCCCCCN1NC(c2ccccc2)=C(c2ccccc2)NC1=O`, the melting point was in the range of 97 to 100 °C.

Compound `CC1(C)OCC(CBr)(CBr)CO1` came in with a melting point of 56 to 58 °C.

In the case of `CO[C@@H](Cc1ccc(OCCc2nc(-c3ccc(-c4ccccc4)cc3)oc2C)c2ccccc12)C(=O)O`, the melting point was in the range of 156 to 159 °C.

For `CCOC(=O)c1cccc2c1Nc1ccc(C(=O)c3ccccc3)cc1N2Cc1ccccc1`, the melting point was 134 to 136 °C.

With `O=[N+]([O-])c1cc(O)cc2cc(-c3ccc(O)cc3)oc12`, the melting point is 236 to 237 °C.

As for `CCCC[C@H](NC(=O)[C@H](CC(C)C)NC(=O)c1ccc(F)c(F)c1)C(=O)CSCc1ccco1`, the melting point lay within 94 to 100 °C.

With `COc1ccc(C(=O)O)c2c1oc1ccccc12`, the melting point worked out at 280 °C.

Take `COCCOc1ccc(CCCOC(=O)NS(=O)(=O)c2ccccc2)c(Oc2ncc(C(F)(F)F)cc2Cl)c1`: the melting point was in the range of 174 to 177 °C.

`O=c1c([N+](=O)[O-])c(O)c2cccnc2n1Cc1ccccc1` returned a melting point of 182 °C.

As for `COCCN(CCOC)C(=O)c1n[nH]c2c(=O)[nH]c3cc(Cl)ccc3c(=O)c12`, the melting point is 207 to 209 °C.

In turn, `CC(C)(C)c1cc(NC(=O)Nc2ccc(OCCN3CCOCC3)c3ccccc23)[nH]n1` displayed a melting point of 206 to 207 °C.

In turn, `CCCCCCCCc1ccc(C#Cc2c3ccccc3c(C#Cc3ccc(CCCCCCCC)cc3)c3ccccc23)cc1` gave a melting point of 131 to 133 °C.

Compound `CC1(C)CC(CCn2c(=O)[nH]c3ncc(-c4ccc(O)cc4)nc32)CCO1` (stereo not drawn) displayed a melting point of 232 to 234 °C.

Compound `c1cc(OCCCc2nnn[nH]2)cc(OCc2ccc3ccccc3n2)c1` came in with a melting point of 147 to 149 °C.

For `CCCCCCCCCCS(=O)(=O)c1ccc(O)c(C(=O)Nc2ccc(C(F)(F)F)cc2)c1`, the melting point fell in the range of 155 to 157 °C.

In the case of `O=C1CC(ON(Cc2ccccc2)Cc2ccccc2)C(=O)N1C1CCCCC1` (stereo not drawn), the melting point fell in the range of 75 to 77 °C.

Regarding `CCc1ccc(O)c(C#N)c1`, the melting point lay within 95 to 98 °C.

For the compound `CN1CCN(C2=Nc3ccccc3N3CCCc4cc(Br)cc2c43)CC1`, the melting point fell in the range of 181 to 183 °C.

Regarding `CS(=O)(=O)c1ccc(-n2nc(C(F)(F)F)cc2-c2ccc(-c3cscn3)cc2)cc1Cl`, the melting point was in the range of 103 to 107 °C.

Compound `O=C(O)c1cc([N+](=O)[O-])cc2ccc(-c3ccccc3)nc12` gave a melting point of 268 to 269 °C.

Turning to `N#Cc1ccc2nc[nH]c(=O)c2c1`, the melting point fell in the range of 294 to 300 °C.

With `COc1ccc2c(c1)c(CC(=O)OCC(=O)O)c(C)n2C(=O)c1c(F)cccc1F`, the melting point was 186 °C.

In the case of `Cn1c(=O)c2c(c3ccccc31)c1cc(Cl)ccc1n2CCN`, the melting point was 222 to 224 °C.

`O=Cc1ccc(OS(=O)(=O)C(F)(F)F)c2ccccc12` came in with a melting point of 44 to 47 °C.

In turn, `Cc1c(-c2ccccc2)n(-c2ccc(S(C)=O)cc2)c(-c2ccccc2)cc1=O` (stereo not drawn) gave a melting point of 242 to 244 °C.

Take `CC(C)(C)OC(=O)N[C@@H]1CN[C@H]2CCO[C@H]21` (relative stereo): the melting point lay within 110 to 111 °C.
